The test system of assay [1] is FEPS (K562/DNR). The arrangement: method as in PMID 32229586. To be noted: reference drugs; cited from earlier work.
For a further assay, the system named is K562. On the set-up: method as in PMID 32229586. To be noted: reference drugs; cited from earlier work.
The subject of assay [2] is Lucena-1 (K562/VCR). The arrangement: method as in PMID 32229586. To be noted: reference drugs; cited from earlier work.
Assay [3] has as its system FEPS (K562/DNR). Kind of assay: MTT cytotoxicity to MDR CML cell line FEPS. In kind it is cell-based, human. To be noted: reference drugs, FEPS/K562, ratio of EC50 values from ref 64. As to the method:
(§1) The CML cell lines K562, Lucena-1 (K562/VCR), and FEPS (K562/DNR) were cultured in RPMI-1640 medium supplemented with 25 mM HEPES and 2 g L^−1 sodium bicarbonate adjusted to pH 7.4 with NaOH, 100 U penicillin and […] streptomycin. All media were supplemented with 10% FBS. Dr. Vivian M. Rumjanek (Instituto de Bioquímica Médica, UFRJ, Brazil) kindly donated Lucena-1 and FEPS cells. Briefly, K562 cells were exposed to increasing concentrations of the chemotherapeutic drugs vincristine sulfate (VCR) and daunorubicin hydrochloride (DNR) (both from Sigma-Aldrich), as described previously. Lucena-1 (K562/VCR) and FEPS (K562/DNR) cells were cultured in the presence of either 60 nM VCR or 500 nM DNR to maintain the MDR phenotypes. For subcultures, cells were harvested every three days followed by washing with cold FBS, and a final concentration of 2 × 10^4 cells mL^−1 was maintained at 37 °C in 5% CO2.
(§2) Cell viability was determined by the 3-(4,5-dimethylthiazol-2-yl)-2,5-diphenyltetrazolium (MTT) colorimetric assay. CML cells (2 × 10^4 cells·mL^−1) were incubated for 72 h at 37 °C, followed by treatment with compounds at a range of concentrations (100–1 μM). Negative controls were prepared with 0.5% DMSO. An MTT salt solution was added to each well to a final concentration of 0.5 g·L^−1, and plates were incubated at 37 °C in 5% CO2 for 3 h. After centrifugation, 200 μL DMSO was added to dissolve the dark-blue formazan crystals formed by MTT reduction. Absorbance was measured on a microplate reader at 570 nm, which is directly proportional to formazan contents and indicative of living cells.
(§3) The percent cell or parasite viability was calculated by the formula: % viability = [(A − P)/(N − P)] × 100, A = absorbance of specific well, P = positive control, N = negative control. Determination of half-maximal effective concentrations (EC50), calculated by logarithmic regression, and significance analysis (p < 0.05), using ANOVA and Dunnett’s test, by GraphPad Prism 7.0 software. The results are expressed as the mean and standard deviation (SD) of three independent experiments.

For assay [4], the system named is Lucena-1 (K562/VCR). As to the kind of experiment: cells. The class given is cell-based, human. To be noted: reference drugs, Lucena-1/K562, ratio of EC50 values from ref 64. The protocol: as §1, §2, §3
A further assay relates to ACHN. The arrangement: method as in doi:10.1134/S1070363218050304. To be noted: cited from earlier work.
The next assay has as its system MCF-7. On the set-up: method as in doi:10.1134/S1070363218050304. To be noted: cited from earlier work.
The test system of a further assay is A375. The arrangement: method as in doi:10.1134/S1070363218050304. To be noted: cited from earlier work.
Another assay concerns L. donovani. The arrangement: method as in PMID 15142541. To be noted: cited from earlier work.
The next assay deals with T. brucei. On the set-up: method as in PMID 15142541. To be noted: cited from earlier work.
Another assay concerns PC3. The arrangement: method as in PMID 15142541. To be noted: cited from earlier work.
The subject of a further assay is Vero. On the set-up: method as in PMID 15142541. To be noted: cited from earlier work.
In the next assay the test system is T. cruzi amastigotes. The arrangement: method as in PMID 22727447. To be noted: cited from earlier work.
The subject of the next assay is Leishmania amazonensis. On the set-up: method as in PMID 19962891. To be noted: cited from earlier work.
Assay [5] relates to T. cruzi. On the set-up: method as in PMID 23006639. To be noted: cited from earlier work.
A further assay concerns T. cruzi trypomastigotes. On the set-up: method as in PMID 23006639. To be noted: cited from earlier work.
In assay [6] the test system is L. amazonensis amastigotes. Kind of assay: Anti-L. amazonensis amastigote assessment in RAW 264.7 macrophages. In kind it is cell-based, Leishmania amazonensis. As to the method: RAW 264.7 cells were seeded in a 96-well microplate (2.0 × 10^4 cells per well) in complete DMEM with 5% FBS and incubated for 3 h at 37 °C in 5% CO2 for cell adhesion. The medium was renewed, and L. amazonensis promastigotes (3.0 × 10^5 parasites per well) were added. After 24 h of incubation at 37 °C in 5% CO2, the cell monolayer was washed with PBS to remove noninternalized parasites, the medium was renewed, and compounds were added at a range of concentrations in triplicate (100–1 μM). Untreated infected cells and noninfected RAW 264.7 cells were used as negative and positive controls, respectively. Vehicle control containing DMEM and 0.3% DMSO was maintained for comparison. After incubation for 48 h at 37 °C in 5% CO2, the medium was removed, and a solution containing 0.02% SDS in PBS (20 µL per well) was added. Macrophage lysis and amastigote release were accompanied under an inverted microscope for 10–15 min. SIM with 12.5% SFB (80 µL per well) was added, parasites were allowed to differentiate into promastigotes for 48 h at 27 °C, and an MTT salt solution in PBS was added (3.0 mM, 20 µL per well). After incubation for 2 h at 27 °C, the MTT formazan was dissolved by adding 120 µL of solubilizing buffer (50% isopropanol, 40% acetate buffer pH 5.4, 10% Triton X). Absorbance was measured using a microplate reader at 570 nm.
as §3

In another assay the test system is RAW 264.7 cells. Kind of assay: Cytotoxicity to RAW 264.7 cells (MTT). In kind it is cell-based, murine. To be noted: Mus musculus, RAW264.7, 48 h, read-out: EC50 RAW. The protocol:
LLC-MK2 kidney fibroblasts (ATCC) and RAW 264.7 macrophages (ATCC) were cultivated in culture flasks in complete DMEM with 5% FBS at 37 °C in 5% CO2. The LLC-MK2 cell monolayer was detached by treatment with trypsin-EDTA 0.05% for 5 min at 37 °C. The RAW cell monolayer was detached mechanically. In both cases, the cells were centrifuged at 480× g for 6 min and resuspended in complete DMEM with 5% FBS, and the cell density was determined by counting with trypan-blue dye exclusion on Neubauer chambers before use.
RAW 264.7 cells were seeded in a 96-well microplate (2.0 × 10^4 cells per well) in complete DMEM with 5% FBS (120 µL per well). After incubation for 24 h at 37 °C in 5% CO2, the medium was renewed, and compounds were added at a range of concentrations in triplicate (100–1 μM). Untreated cells and cells treated with DMEM and 10% DMSO were used as negative and positive controls, respectively. Vehicle control containing DMEM and 0.3% DMSO was maintained for comparison. After incubation for 48 h at 37 °C in 5% CO2, the medium was renewed, and an MTT solution in PBS was added (3.0 mM, 20 µL per well). After incubation for 2 h at 37 °C in 5% CO2, the supernatant was removed, and MTT formazan was dissolved in DMSO (150 µL per well). Absorbance was measured using a microplate reader at 570 nm.
as §3

For assay [7], the system named is L. amazonensis promastigotes. Kind of assay: Anti-L. amazonensis promastigote assessment (MTT). In kind it is cell-based. To be noted: Leishmania amazonensis, 48 h, read-out: EC50 L. amazonensis promastigotes. The protocol:
Promastigotes of L. amazonensis (MHOM/BR/75/Josefa) were cultured in Schneider’s insect medium (SIM) with 10% FBS. Parasites were harvested at the stationary growth phase for assessment against promastigotes and 24 h after cultures reached the stationary growth phase for infection assays. […]. Complete SIM media and amphotericin B (AmB) at 10 µM were used as negative and positive controls, respectively. A vehicle control containing SIM with 10% SFB media and 0.3% DMSO was maintained for comparison. The final volume of the experiment was 100 µL. After incubation for 48 h at 27 °C, MTT salt solution in PBS was added (3.0 mM, 20 µL per well). After incubation for 2 h at 27 °C, the MTT formazan was dissolved by adding 120 µL of solubilizing buffer (50% isopropanol, 40% acetate buffer pH 5.4, 10% Triton-X). Absorbance was measured using a microplate reader at 570 nm.
as §3

The subject of a further assay is HL-60. On the set-up: method as in PMID 20411988. To be noted: sensitive promyelocytic leukemia; cited from earlier work.
Another assay has as its system HL-60/VCR. On the set-up: method as in PMID 20411988. To be noted: drug-resistant promyelocytic leukemia; cited from earlier work.
Assay [8] deals with Trypanosoma brucei rhodesiense. The arrangement: method as in PMID 22217867. To be noted: cited from earlier work.
The test system of a further assay is Leishmania donovani. The arrangement: method as in PMID 22217867. To be noted: cited from earlier work.
Assay [9] has as its system T. cruzi. The arrangement: method as in PMID 22217867. To be noted: cited from earlier work.
The subject of a further assay is T. cruzi epimastigotes. The arrangement: method as in PMID 19517898. To be noted: T. cruzi epimastigotes at 50 μM; cited from earlier work.

Structures can show the parent of a compound that is named as a salt.

A word on the EC50: it is the concentration giving half of the maximal effect. For orientation: IC50 means the concentration at which inhibition is half-maximal.

In the case of `CC[C@]1(O)C[C@H]2CN(CCc3c([nH]c4ccccc34)[C@@](C(=O)OC)(c3cc4c(cc3OC)N(C=O)[C@H]3[C@@](O)(C(=O)OC)[C@H](OC(C)=O)[C@]5(CC)C=CCN6CC[C@]43[C@@H]65)C2)C1` [VCR, vincristine sulfate], the EC50 in the assay on FEPS (K562/DNR) [1] is 1.05 ± 0.07 µM; with K562 it was 0.054 ± 0.005 µM; with Lucena-1 (K562/VCR) [2] it was 0.85 ± 0.12 µM. Besides, the “RR (relative resistance) FEPS” value with FEPS (K562/DNR) [3] is recorded as 19.4. Besides, the “RR (relative resistance) Lucena-1” value in the assay on Lucena-1 (K562/VCR) [4] was determined as 15.7.

For the compound `COc1cc(-c2nc(-c3c(Cl)nc4sc(C)nn34)no2)cc(OC)c1OC` [Compound 6], the IC50 in the assay on ACHN is 0.11 µM; with MCF-7, 0.23 µM; in the assay with A375 it was 1.22 µM.

For `N#CSCc1nc(-c2ccc(Cl)c(Cl)c2)no1` [Compound 8], the IC50 is 2.3 µM in the assay with L. donovani, 5.2 µM with T. brucei, 3.9 µM in the assay with PC3 and 70 µM in the assay on Vero.

In the case of `O=C(/C=C/c1ccc2c(c1)OCO2)c1cccs1` [Compound 4], the IC50 in the assay with T. cruzi amastigotes is 5.6 µM.

In the case of `C=COc1cc(OC)c(C(=O)/C=C/c2ccncc2)c(OC=C)c1` [Compound 3], the IC50 with Leishmania amazonensis was 0.6 µM.

For `O=C(NN=Cc1ccc2c(c1)OCO2)c1nc(-c2ccc(Cl)cc2)no1` [conjugate 9], the “effect on parasitemia in infected mice” value in the assay with T. cruzi [5] was “reduce parasitemia”. Also, the IC50 with T. cruzi trypomastigotes is 3.5 µM.

Take `C[C@@H]1[C@H](O)[C@@H](C)/C=C/C=C/C=C/C=C/C=C/C=C/C=C/[C@H](O[C@@H]2O[C@H](C)[C@@H](O)[C@H](N)[C@@H]2O)C[C@@H]2O[C@](O)(C[C@@H](O)C[C@@H](O)[C@H](O)CC[C@@H](O)C[C@@H](O)CC(=O)O[C@H]1C)C[C@H](O)[C@H]2C(=O)O` [Amphotericin B, reference compound]: the EC50 in assay [6] (Leishmania amazonensis, RAW264.7, 48 h, read-out: EC50 L. amazonensis intracellular amastigotes) worked out at 0.151 ± 0.022 µM; in the assay with RAW 264.7 cells, 9.8 ± 3.3 µM; in assay [7], 0.094 ± 0.001 µM. Further, the “S.I. (selectivity index)” value in assay [6] (host cell/parasite EC50 ratio, RAW/L. amazonensis) was found to be 65.2.

With `COc1cccc(/C=C/C(=O)Nc2cc(OC)c(OC)c(OC)c2)c1` [Compound 2], the IC50 in the assay on HL-60 is 3.1 µM; in the assay on HL-60/VCR it was 11.6 µM.

As to `COc1cccc2c1C(=O)c1c(O)c3c(c(O)c1C2=O)C[C@@](O)(C(C)=O)C[C@@H]3O[C@H]1C[C@H](N)[C@H](O)[C@H](C)O1` [DNR, daunorubicin hydrochloride], the EC50 was 6.45 ± 1.27 µM with FEPS (K562/DNR) [1], 0.082 ± 0.001 µM with K562 and 3.06 ± 0.87 µM with Lucena-1 (K562/VCR) [2]. Moreover, the “RR (relative resistance) FEPS” value in the assay on FEPS (K562/DNR) [3] is recorded as 78.6. Also, the “RR (relative resistance) Lucena-1” value in the assay on Lucena-1 (K562/VCR) [4] is 37.3.

Take `Cc1ccc(-c2noc(CN3N=NC4C(=O)N(c5ccccc5)C(=O)C43)n2)cc1` (stereo not drawn) [Compound 7]: the IC50 in [8] was 21.6 µM; in the assay with Leishmania donovani, 5.7 µM; in the assay on T. cruzi [9], 100 µM.

`COc1ccc(OC)c(/C=C/C(=O)Nc2nc3ccccc3s2)c1` [Compound 1]: in the assay on T. cruzi epimastigotes, the apoptosis was 40.2%, the necrosis is reported as 17.9% and the parasite death is given as 58.1%.

(Values after article PMC9787607, “A Novel Protocol for the Synthesis of 1,2,4-Oxadiazoles Active against Trypanosomatids and Drug-Resistant Leukemia Cell Lines” (Tropical Medicine and Infectious Disease, 2022).)
